Data published in BindingDB's records for doi:10.1021/acsmedchemlett.9b00625 (Rwth Aachen University, 2020).

Legend:
[1] = Inhibition of BRD4 in human MOLM-14 cells harboring FLT3-ITD mutant assessed as decrease in metabolic activity measured after 72 hrs by MTT assay
[2] = Inhibition of BRD4 in human HEL cells harboring JAK2 V617F mutant assessed as decrease in metabolic activity measured after 72 hrs by MTT assay

CN1Cc2cc(N=[S@@](C)(=O)c3ccccc3)ccc2NC1=O gave an IC50 [1] of 1000 nM and an IC50 [2] of 500 nM.
